# Measurements: publication PMC6480224, “Synthesis of Pyridine-Dicarboxamide-Cyclohexanone Derivatives: Anticancer and α-Glucosidase Inhibitory Activities and In Silico Study” (Molecules, 2019)
# Where two headings read alike, the source gives them in different places.
# Key:
# HuH-7 liver cancer cells = experiment: MTT cytotoxicity assay, HuH-7; format: cell-based; settings: mean ± SD of three experiments, NA = no or negligible activity in initial crystal violet screening
# Method: (§1) The cytotoxic activity of the new synthesized compounds was tested in different mammalian cancer cells, breast cancer (+ve ER) (MCF-7), breast cancer (−ve ER) (MDA-MB-231), tongue (oral cancer) (SAS), prostate cancer (PC-3), colorectal cancer (HCT-116) and hepatocellular carcinoma (HuH-7 and HepG-2). The cell lines were obtained from the American Type Culture Collection (ATCC). The cells were cultivated at 37 °C and 5% CO2 in DMEM (Lonza) medium supplemented with 10% fetal bovine serum (Lonza), 100 IU/mLpenicillin and 100 µg/mL streptomycin (Lonza). Cisplatin was used as a positive control and was obtained from Sigma-Aldrich. The synthesized compounds were solubilized in DMSO and stored at −20 °C. For the initial screening, 0.5% crystal violet was used. The viability of the cells were determined by using the MTT reagent.
# (§2) “The cells were seeded in a 96-well plate and serial dilutions of the tested compounds or cisplatin was added after overnight incubation of the cells at 37 °C and 5% CO2. DMSO was used as a negative control (0.1%). After that, MTT (5 mg/mL PBS) was added after 48 hours of incubation. […] The absorbance was recorded at 570 nm by Biotech ELx-800™ plate reader (Winooski, VT, USA). The viability assay was performed 3 times and the standard deviation was determined (±). […] The selectivity index was calculated as previously reported” [26, 27].
# [1] = system: HCT-116 colorectal cancer cells; experiment: MTT cytotoxicity assay, HCT-116; format: cell-based; settings: mean ± SD of three experiments, NA = no or negligible activity in initial crystal violet screening, read-out: IC50 Colon HCT-116
# Method: as §1, §2
# HepG2 liver cancer cells = experiment: MTT cytotoxicity assay, HepG2; format: cell-based; settings: mean ± SD of three experiments, NA = no or negligible activity in initial crystal violet screening
# Method: as §1
# (§3) “The cells were seeded in a 96-well plate and serial dilutions of the tested compounds or cisplatin was added after overnight incubation of the cells at 37 °C and 5% CO2. DMSO was used as a negative control (0.1%). After that, MTT (5 mg/mL PBS) was added after 48 hours of incubation. The formazan crystals were solubilized by the acidified SDS solution. The absorbance was recorded at 570 nm by Biotech ELx-800™ plate reader (Winooski, VT, USA). The viability assay was performed 3 times and the standard deviation was determined (±). IC50 was calculated as the concentration that causes 50% inhibition of cell growth. The selectivity index was calculated as previously reported” [26, 27].
# [2] = system: MCF-7 breast cancer (+ve ER) cells; experiment: MTT cytotoxicity assay, MCF-7; format: cell-based; settings: mean ± SD of three experiments, NA = no or negligible activity in initial crystal violet screening
# Method: as §1, §3
# [3] = system: seven cancer cell lines (MCF-7, MDA-MB-231, SAS, PC-3, HCT-116, HuH-7, HepG2); experiment: Anticancer screening against the panel of seven cancer cell lines (crystal violet initial screening); format: cell-based; settings: concentration of 50 μM
# Method: To evaluate the anticancer activity of the 13 newly synthesized compounds, we screened their activities at a concentration of 50 μM against seven cancer cell lines, including breast cancer (positive [MCF-7] and negative [MDA-MB-231] for estrogen receptor expression), tongue carcinoma (SAS), prostate cancer (PC-3), colorectal cancer (HCT-116) and liver cancer (HuH-7 and HepG2) cell lines. […] The 3-(4,5-dimethylthiazol-2-yl)-2,5-diphenyltetrazolium bromide (MTT) assay was performed to determine the concentration of the active compounds needed to kill 50% of cells.
# as §1
# [4] = system: MDA-MB-231 breast cancer (−ve ER) cells; experiment: MTT cytotoxicity assay, MDA-MB-231; format: cell-based; settings: mean ± SD of three experiments, NA = no or negligible activity in initial crystal violet screening
# Method: as §1, §3
# [5] = system: PC-3 prostate cancer cells; experiment: MTT cytotoxicity assay, PC-3; format: cell-based; settings: 48 h, mean ± SD of three experiments, NA = no or negligible activity in initial crystal violet screening
# Method: as §1, §3
# [6] = system: SAS tongue carcinoma (oral cancer) cells; experiment: MTT cytotoxicity assay, SAS; format: cell-based; settings: 48 h, mean ± SD of three experiments, NA = no or negligible activity in initial crystal violet screening
# Method: as §1, §3
structure (smiles),measurement,setting,value
"O=C1CC(c2ccc3ccccc3c2)C(C(=O)Nc2ccc(Cl)cn2)(C(=O)Nc2ccc(Cl)cn2)C(c2ccc3ccccc3c2)C1 (stereo not drawn) [Compound 3h, N,N′-bis(5-Chloropyridin-2-yl)-2,6-di(naphthalen-2-yl)-4-oxocyclohexane-1,1-dicarboxamide]",melting point,,114 to 115 °C
"O=C1CC(c2ccc(C(F)(F)F)cc2)C(C(=O)Nc2ccc(Cl)cn2)(C(=O)Nc2ccc(Cl)cn2)C(c2ccc(C(F)(F)F)cc2)C1 (stereo not drawn) [Compound 3l, N,N′-bis(5-Chloropyridin-2-yl)-4-oxo-2,6-bis(4-(trifluoromethyl)phenyl)cyclohex-ane-1,1-dicarboxamide]",IC50,"HuH-7 liver cancer cells; Homo sapiens, Huh-7, 48 h",4.5 ± 0.3 µM
same,IC50,"[1]; Homo sapiens, HCT-116, 48 h",6 ± 0.78 µM
same,IC50,"HepG2 liver cancer cells; Homo sapiens, HepG2, 48 h",25 ± 0.38 µM
same,melting point,,138 to 139 °C
same,IC50,"[2]; Homo sapiens, MCF7, 48 h",18 ± 1.71 µM
same,anticancer activity in initial screening,[3],showed different levels of anticancer activities
same,IC50,"[4]; Homo sapiens, MDA-MB-231, 48 h",5 ± 0.25 µM
same,IC50,[5],> 50 µM
same,IC50,[6],9 ± 0.38 µM
"O=C1CC(c2cccc([N+](=O)[O-])c2)C(C(=O)Nc2ccc(Cl)cn2)(C(=O)Nc2ccc(Cl)cn2)C(c2cccc([N+](=O)[O-])c2)C1 (stereo not drawn) [Compound 3f, N,N′-bis(5-Chloropyridin-2-yl)-2,6-bis(3-nitrophenyl)-4-oxocyclohexane-1,1-dicarboxamide]",melting point,,174 to 175 °C
"Cc1ccc(C2CC(=O)CC(c3ccc(C)cc3)C2(C(=O)Nc2ccc(Cl)cn2)C(=O)Nc2ccc(Cl)cn2)cc1 (stereo not drawn) [Compound 3b, N,N′-bis(5-Chloropyridin-2-yl)-4-oxo-2,6-di-p-tolylcyclohexane-1,1-dicarboxamide]",melting point,,145 to 146 °C
"COc1ccc(C2CC(=O)CC(c3ccc(OC)cc3)C2(C(=O)Nc2ccc(Cl)cn2)C(=O)Nc2ccc(Cl)cn2)cc1 (stereo not drawn) [Compound 3g, N,N′-bis(5-Chloropyridin-2-yl)-2,6-bis(4-methoxyphenyl)-4-oxocyclohexane-1,1-dicarboxamide]",melting point,,203 to 204 °C
"O=C1CC(c2ccc(F)cc2)C(C(=O)Nc2ccccn2)(C(=O)Nc2ccccn2)C(c2ccc(F)cc2)C1 (stereo not drawn) [Compound 3m, 2,6-bis(4-Fluorophenyl)-4-oxo-N,N′-di(pyridin-2-yl)cyclohexane-1,1-dicarboxamide]",melting point,,245 to 246 °C
"O=C1CC(c2ccc(Cl)cc2Cl)C(C(=O)Nc2ccccn2)(C(=O)Nc2ccccn2)C(c2ccc(Cl)cc2Cl)C1 (stereo not drawn) [Compound 3d, 2,6-bis(2,4-Dichlorophenyl)-4-oxo-N,N′-di(pyridin-2-yl)cyclohexane-1,1-dicarboxamide]",IC50,"HepG2 liver cancer cells; Homo sapiens, HepG2, 48 h",> 50 µM
same,melting point,,210 to 211 °C
same,IC50,"[2]; Homo sapiens, MCF7, 48 h",> 50 µM
same,anticancer activity in initial screening,[3],showed different levels of anticancer activities
same,IC50,"[4]; Homo sapiens, MDA-MB-231, 48 h",18 ± 0.87 µM
"O=C1CC(c2ccco2)C(C(=O)Nc2ccc(Cl)cn2)(C(=O)Nc2ccc(Cl)cn2)C(c2ccco2)C1 (stereo not drawn) [Compound 3j, N,N′-bis(5-Chloropyridin-2-yl)-2,6-di(furan-2-yl)-4-oxocyclohexane-1,1-dicarboxamide]",IC50,"HepG2 liver cancer cells; Homo sapiens, HepG2, 48 h",> 50 µM
same,melting point,,160 to 161 °C
same,IC50,"[2]; Homo sapiens, MCF7, 48 h",50 ± 0.78 µM
same,IC50,"[4]; Homo sapiens, MDA-MB-231, 48 h",45 ± 3 µM
"O=C1CC(c2cccc(Br)c2)C(C(=O)Nc2ccc(Cl)cn2)(C(=O)Nc2ccc(Cl)cn2)C(c2cccc(Br)c2)C1 (stereo not drawn) [Compound 3k, 2,6-bis(3-Bromophenyl)-N,N′-bis(5-chloropyridin-2-yl)-4-oxocyclohexane-1,1-dicarboxamide]",melting point,,213 to 214 °C
same,anticancer activity in initial screening,[3],showed different levels of anticancer activities
"O=C1CC(c2ccc(Cl)cc2)C(C(=O)Nc2ccccn2)(C(=O)Nc2ccccn2)C(c2ccc(Cl)cc2)C1 (stereo not drawn) [Compound 3c, 2,6-bis(4-Chlorophenyl)-4-oxo-N,N′-di(pyridin-2-yl)cyclohexane-1,1-dicarboxamide]",IC50,"HepG2 liver cancer cells; Homo sapiens, HepG2, 48 h",8 ± 0.89 µM
same,melting point,,231 to 232 °C
same,IC50,"[2]; Homo sapiens, MCF7, 48 h",10 ± 0.62 µM
same,anticancer activity in initial screening,[3],showed different levels of anticancer activities
same,IC50,"[4]; Homo sapiens, MDA-MB-231, 48 h",7 ± 1.12 µM
same,IC50,[5],25 ± 1.42 µM
same,IC50,[6],15 ± 1.3 µM
"O=C1CC(c2ccccc2)C(C(=O)Nc2ccccn2)(C(=O)Nc2ccccn2)C(c2ccccc2)C1 (stereo not drawn) [Compound 3a, 4-Oxo-2,6-diphenyl-N,N′-di(pyridin-2-yl)cyclohexane-1,1-dicarboxamide]",melting point,,248 to 249 °C
"O=C1CC(c2cccs2)C(C(=O)Nc2ccc(Cl)cn2)(C(=O)Nc2ccc(Cl)cn2)C(c2cccs2)C1 (stereo not drawn) [Compound 3i, N,N′-bis(5-Chloropyridin-2-yl)-4-oxo-2,6-di(thiophen-2-yl)cyclohexane-1,1-dicarboxamide]",melting point,,165 to 166 °C
"N.N.[Cl][Pt][Cl] [Cisplatin, reference compound]",IC50,HuH-7 liver cancer cells; 48 h,14.7 ± 0.5 µM
same,IC50,[1]; 48 h,8 ± 0.76 µM
same,IC50,HepG2 liver cancer cells; 48 h,10 ± 0.65 µM
same,IC50,[2]; 48 h,9 ± 2.43 µM
same,IC50,[4]; 48 h,15 ± 0.71 µM
same,IC50,[5],12 ± 1.25 µM
same,IC50,[6],4.5 ± 0.34 µM
"O=C1CC(c2ccc(Br)cc2)C(C(=O)Nc2ccccn2)(C(=O)Nc2ccccn2)C(c2ccc(Br)cc2)C1 (stereo not drawn) [Compound 3e, 2,6-bis(4-Bromorophenyl)-4-oxo-N,N′-di(pyridin-2-yl)cyclohexane-1,1-dicarboxamide]",IC50,HepG2 liver cancer cells; 48 h,8 ± 0.96 µM
same,IC50,[2]; 48 h,12 ± 0.54 µM
same,anticancer activity in initial screening,[3],showed different levels of anticancer activities
same,IC50,[4]; 48 h,5 ± 0.5 µM
